The compounds below were run against Neuronal acetylcholine receptor subunit alpha-7 (Homo sapiens, UniProt P36544) (assay: Agonist activity at alpha7 nAChR (unknown origin)).
Sequence of Neuronal acetylcholine receptor subunit alpha-7 (P36544 whole entry): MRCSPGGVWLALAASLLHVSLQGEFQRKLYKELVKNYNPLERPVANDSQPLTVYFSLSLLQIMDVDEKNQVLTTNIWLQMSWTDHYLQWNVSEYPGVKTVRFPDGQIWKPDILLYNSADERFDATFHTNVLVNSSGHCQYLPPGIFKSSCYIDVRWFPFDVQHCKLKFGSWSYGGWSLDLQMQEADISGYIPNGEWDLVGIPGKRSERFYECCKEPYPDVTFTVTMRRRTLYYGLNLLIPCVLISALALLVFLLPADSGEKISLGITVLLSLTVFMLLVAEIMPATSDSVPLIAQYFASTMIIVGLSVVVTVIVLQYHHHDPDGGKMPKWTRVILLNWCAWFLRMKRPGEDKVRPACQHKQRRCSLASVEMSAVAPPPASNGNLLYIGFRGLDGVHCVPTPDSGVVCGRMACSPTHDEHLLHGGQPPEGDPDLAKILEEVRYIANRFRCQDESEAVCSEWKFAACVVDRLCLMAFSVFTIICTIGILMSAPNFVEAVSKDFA

| SMILES | IC50 [µM] |
| --- | --- |
| COc1ccc(NC(=O)N2CCNCC2COc2cccnc2)cc1 (stereo not given) | 0.011 |
| c1cncc(OC[C@H]2CNCCN2c2nc3ncccc3o2)c1 | 0.006 |
| COc1ccc(NC(=O)N2CCNC[C@@H]2COc2cccnc2)cc1 | 0.019 |
| COc1ccc(NC(=O)N2CCNCC2CCc2cccnc2)cc1 (stereo not given) | > 5 |
| COc1ccc(OC(=O)N2CCNCC2CCc2cccnc2)cc1 (stereo not given) | > 5 |
